Drawing on ChEMBL document CHEMBL3804798, “Design, synthesis and anti-inflammatory effects of novel 9-O-substituted-berberine derivatives” (Medchemcomm, 2016), this text covers viability, inhibition and Activity for 17 compounds.

The inhibition is the change of the read-out against control, counted positive when it falls.

Active and inactive are the calls of the source. The calls are words filed in the database; no cut-off is given here.

Data set [1] is described as follows: Cytotoxicity against mouse RAW264.7 cells assessed as cell viability at 10 uM after 48 hrs by MTT assay relative to control. Conditions: read-out: Activity. The data set is classed as cell-based. On the technique in general: Formazan colour is commonly taken as a measure of viable cells.
Data set [2] is described as follows: Cytotoxicity against mouse RAW264.7 cells assessed as cell viability at 5 uM after 48 hrs by MTT assay relative to control. In kind it is cell-based. The following applies: read-out: Activity.
The test system of data set [3] is RAW264.7. As to the kind of experiment: Antiinflammatory activity against mouse RAW264.7 cells assessed as inhibition of LPS-induced NO release at 5 uM after 24 hrs by Griess assay relative to control. The data set is classed as functional. The following applies: RAW264.7, 24 h.
For data set [4], the system named is RAW264.7. As to the kind of experiment: Antiinflammatory activity against mouse LPS-induced RAW264.7 cells assessed as inhibition of IL-6 production at 5 uM after 24 hrs by cytokine enzyme-linked immunosorbent assay relative to control. In kind it is functional, cell-based.
In data set [5] the test system is RAW264.7. As to the kind of experiment: Antiinflammatory activity against mouse RAW264.7 cells assessed as inhibition of LPS-induced NO release after 24 hrs by Griess assay relative to control. In kind it is functional, cell-based. On the technique in general: Nitrite, measured by Griess reagent, commonly stands in for NO production.
Data set [6] relates to RAW264.7. The data set is described as follows: Inhibition of LPS stimulated iNOS expression in mouse RAW264.7 cells preincubated for 2 hrs followed by LPS stimulation for 6 hrs by Western blot analysis. The data set is classed as functional, cell-based. Background: In western blotting, separated proteins are transferred to a membrane and probed.
The test system of data set [7] is RAW264.7. The data set is described as follows: Antiinflammatory activity against mouse LPS-induced RAW264.7 cells assessed as inhibition of TNFalpha production at 5 uM after 24 hrs by cytokine enzyme-linked immunosorbent assay relative to control. Conditions: RAW264.7, 24 h. The data set is classed as functional.
The target of data set [8] is T1, NF-kappa-B inhibitor alpha (Mus musculus) (UniProt Q9Z1E3).
T1 sequence (whole entry): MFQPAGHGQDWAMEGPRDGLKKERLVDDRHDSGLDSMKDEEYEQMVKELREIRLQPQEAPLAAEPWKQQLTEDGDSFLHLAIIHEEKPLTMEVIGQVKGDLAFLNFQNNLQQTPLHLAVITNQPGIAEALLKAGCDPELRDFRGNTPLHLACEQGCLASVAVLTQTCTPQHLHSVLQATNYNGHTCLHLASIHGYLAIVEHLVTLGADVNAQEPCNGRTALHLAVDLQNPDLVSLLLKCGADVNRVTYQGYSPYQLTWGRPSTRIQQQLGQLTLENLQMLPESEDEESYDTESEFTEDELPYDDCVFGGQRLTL
As to the kind of experiment: Inhibition of LPS stimulated IkappaBaplha phosphorylation in mouse RAW264.7 cells preincubated for 2 hrs followed by LPS stimulation for 6 hrs by Western blot analysis. The data set is classed as cell-based.

For data set [9], the species on record is Danio rerio. The data set is described as follows: Antiinflammatory activity in cut-tail neutrophil/macrophage double transgenic zebra fish larvae assessed as cut-tail-induced reduction in neutrophil level in wound site at 10 uM after 3 to 9 hrs by fluorescence microscopic analysis relative to control. In kind it is functional, organism-based.
Data set [10] is filed under the species Danio rerio. The data set is described as follows: Antiinflammatory activity in cut-tail neutrophil/macrophage double transgenic zebra fish larvae assessed as cut-tail-induced migration of primitive macrophages at 10 uM after 3 to 6 hrs by fluorescence microscopic analysis relative to control. The data set is classed as functional, organism-based.
For data set [11], the species on record is Danio rerio. The data set is described as follows: Antiinflammatory activity in cut-tail neutrophil/macrophage double transgenic zebra fish larvae assessed as cut-tail-induced reduction in migration of primitive macrophages at 10 uM after 9 hrs by fluorescence microscopic analysis relative to control. The data set is classed as functional, organism-based.

`CCOC(=O)C1CCN(CCCOc2c(OC)ccc3cc4[n+](cc23)CCc2cc3c(cc2-4)OCO3)CC1`: the viability at 48 h, 10 µM in data set [1] was 99.5%. Besides, in [2], the viability at 48 h, 5 µM came to 98.5%.

On to `COc1ccc2cc3[n+](cc2c1OC)CCc1cc2c(cc1-3)OCO2` [BERBERINE CHLORIDE], for which, in [1], the viability at 48 h, 10 µM came out at 97.2%. In addition, the inhibition at 5 µM with RAW264.7 [3] was 21.1%. Besides, the viability at 48 h, 5 µM in data set [2] was found to be 99.4%.

As to `COc1ccc2cc3[n+](cc2c1OC(=O)N1CCOCC1)CCc1cc2c(cc1-3)OCO2`, the viability at 48 h, 10 µM in data set [1] is 96%. In data set [2], the viability at 48 h, 5 µM worked out at 105%.

For `CCOC(=O)N1CCN(C(=O)Oc2c(OC)ccc3cc4[n+](cc23)CCc2cc3c(cc2-4)OCO3)CC1`, in data set [1], the viability at 48 h, 10 µM stood at 99.6%. Moreover, in the data set with RAW264.7 [3], the inhibition at 5 µM is 9.7%. The viability at 48 h, 5 µM in data set [2] turned out to be 97.9%.

`COc1ccc2cc3[n+](cc2c1OC(=O)N1CCC(N2CCN(C)CC2)CC1)CCc1cc2c(cc1-3)OCO2`: in data set [1], the viability at 48 h, 10 µM was 104%. Besides, the viability at 48 h, 5 µM in [2] stood at 101%.

As for `COc1ccc2cc3[n+](cc2c1OC(=O)N1CCN(c2ncccn2)CC1)CCc1cc2c(cc1-3)OCO2`, in data set [1], the viability at 48 h, 10 µM stood at 97.6%. The viability at 48 h, 5 µM in [2] is 102%.

As to `COc1ccc2cc3[n+](cc2c1OC(=O)N1CCC(N2CCCCC2)CC1)CCc1cc2c(cc1-3)OCO2`, the viability at 48 h, 10 µM in data set [1] is 100%. In data set [2], the viability at 48 h, 5 µM came out at 98.1%.

`CCCN(CCC)C(=O)Oc1c(OC)ccc2cc3[n+](cc12)CCc1cc2c(cc1-3)OCO2`: in data set [1], the viability at 48 h, 10 µM is 93.9%. In addition, the viability at 48 h, 5 µM in data set [2] was found to be 101%.

Turning to `CCOC(=O)N1CCN(CCCOc2c(OC)ccc3cc4[n+](cc23)CCc2cc3c(cc2-4)OCO3)CC1`, the viability at 48 h, 10 µM in data set [1] amounted to 99.1%. Besides, the viability at 48 h, 5 µM in [2] was determined as 103%.

For the compound `COc1ccc2cc3[n+](cc2c1OC(=O)N1CCN(c2ccccn2)CC1)CCc1cc2c(cc1-3)OCO2`, in data set [1], the viability at 48 h, 10 µM stood at 109%. For the same compound, the inhibition at 5 µM with RAW264.7 [3] is 12.9%. Also, the viability at 48 h, 5 µM in data set [2] came out at 103%.

As to `COc1ccc2cc3[n+](cc2c1OC(=O)N1CCSCC1)CCc1cc2c(cc1-3)OCO2`, in data set [1], the viability at 48 h, 10 µM stood at 109%. Moreover, the viability at 48 h, 5 µM in data set [2] is 96%.

As to `COc1ccc2c(c1)c(CC(=O)O)c(C)n2C(=O)c1ccc(Cl)cc1` [INDOMETHACIN], the viability at 48 h, 10 µM in [1] was 99.6%. Also, in the data set on RAW264.7 [3], the inhibition at 5 µM came out at 20.8%. Besides, in data set [2], the viability at 48 h, 5 µM is 99.8%.

Turning to `C=CCN(CC=C)C(=O)Oc1c(OC)ccc2cc3[n+](cc12)CCc1cc2c(cc1-3)OCO2`, the viability at 48 h, 10 µM in [1] stood at 92.2%. Also, the viability at 48 h, 5 µM in [2] is 100%.

For `COc1ccc2cc3[n+](cc2c1OC(=O)N(C)C1CCCCC1)CCc1cc2c(cc1-3)OCO2`, in the data set with RAW264.7 [4], the inhibition result is “Active”. Moreover, the inhibition result (with RAW264.7 [5]; in the data set on RAW264.7 [6]; in data set [8]) was “Dose-dependent effect” throughout. The values for the inhibition at 5 µM with RAW264.7 [7] and in the data set with RAW264.7 [3] were 70% and 70.3%, respectively. In addition, the result in the data set filed under Danio rerio [9] and in the data set listed under Danio rerio [11] was Active. Also, the viability at 48 h, 10 µM in [1] is 83.2%. In addition, in the data set listed under Danio rerio [10], the result was inactive. Besides, in [2], the viability at 48 h, 5 µM turned out to be 99.3%.

For the compound `COc1ccc2cc3[n+](cc2c1OC(=O)N1CCC(Cc2ccccc2)CC1)CCc1cc2c(cc1-3)OCO2`, the viability at 48 h, 10 µM in data set [1] is 87.9%. In addition, in data set [2], the viability at 48 h, 5 µM turned out to be 97.6%.

On to `COc1ccc2cc3[n+](cc2c1OC(=O)N1CCN(C2CCN(C)CC2)CC1)CCc1cc2c(cc1-3)OCO2`, for which the viability at 48 h, 10 µM in data set [1] worked out at 102%. Moreover, the viability at 48 h, 5 µM in data set [2] was found to be 107%.

`COc1ccc2cc3[n+](cc2c1OCCCN1CCN(c2ccncc2)CC1)CCc1cc2c(cc1-3)OCO2`: the inhibition result with RAW264.7 [4] is “Active”. The inhibition entry (in the data set with RAW264.7 [5]; with RAW264.7 [6]; in [8]) was “Dose-dependent effect” throughout. Besides, the values for the inhibition at 5 µM with RAW264.7 [7] and in the data set with RAW264.7 [3] were 90% and 30.2%, respectively. The outcome in the data set listed under Danio rerio [9] and in the data set filed under Danio rerio [11] was Active. The viability at 48 h, 10 µM in [1] amounted to 100%. Besides, the result in the data set filed under Danio rerio [10] was inactive. Besides, the viability at 48 h, 5 µM in [2] stood at 103%.
